Source: publication PMC8317065, “UPLC-MS/MS Method for Analysis of Endocannabinoid and Related Lipid Metabolism in Mouse Mucosal Tissue” (Frontiers in Physiology, 2021)

Test system: MAG biosynthesis (DGL)
Assay: THL oral gavage: levels of MAGs in jejunum mucosa, lung and plasma
Type: in vivo, mouse
Experimental: Adult C57BL/6J male mice were food-deprived for 24 h prior to harvest with ad libitum access to water. To prevent coprophagia, animals were maintained on elevated wire-bottom cages for a 72-hour acclimation period and during the 24-hour food deprivation. One hour prior to harvest, mice received an oral gavage (100 μL of 10 mg/mL) of the DGL inhibitor, THL, in polyethylene glycol (PEG) or PEG alone as control. Jejunum intestinal epithelium and lungs were harvested as described above (see section “Tissue Harvest and Preparation for Enzyme Assays”).
Frozen tissue samples were weighed and homogenized in 1.0 mL of methanol containing the internal standards [^2H5]-2-AG (500 pmol), [^2H4]-AEA (1 pmol), and [^2H4]-OEA (10 pmol). Lipids were extracted using chloroform (2.0 mL) prior to being washed with 1.0 mL 0.2-micron ultra-purified water. Following centrifugation (1,500 × g, 15 min, 4°C), the lower organic phase was collected and dried under N2 steam (99.998% pure). A second chloroform wash (1.0 mL) was then performed followed by another centrifugation (1,500 × g, 15 min, 4°C) and collection of the lower phase. Samples were reconstituted in 2.0 mL of chloroform and purified via open-bed silica gel column chromatography. Columns were washed with a 9:1 chloroform:methanol mixture to elute MAGs and FAEs for collection. Collected eluates were dried under N2 steam (99.998% pure) and resuspended in 0.2 mL of methanol:chloroform (1:1) prior to analysis via UPLC-MS/MS (see section “Quantitation of MAGs and FAEs”).
Data was acquired using equipment described above (see section “UPLC-MS/MS Detection of Analytes”) and using the elution protocol described above (see section “Quantitation of MAG Biosynthetic Enzyme Activity Assay Products”). Cone voltage and collision energy for each analyte are as follows, respectively: AEA = 30 v, 14 v; [^2H4]-AEA = 26 v, 16v; OEA = 28 v, 16 v; [^2H4]-OEA = 48 v, 14 v; DHEA = 30 v, 50 v; 2-AG (20:4) = 30 v, 12 v; [^2H5]-2-AG = 25 v, 44v; 2-DG (22:6) = 34 v, 14 v; 2-PG (16:0) = 18 v, 10 v; 2-OG (18:1) = 42 v, 10 v; 2-LG (18:2) = 30 v, 10 v. MS/MS detection was in positive ion mode and capillary voltage set at 0.1 kV. Extracted ion chromatograms were used to quantify AEA (m/z = 348.3 > 62.0), [^2H4]-AEA (m/z = 352.3 > 66.1), OEA (m/z = 326.4 > 62.1), [^2H4]-OEA (m/z = 330.4 > 66.0), DHEA (m/z = 372.3 > 91.0), 2-AG (m/z = 379.3 > 287.3), [^2H5]-2-AG (m/z = 384.3 > 93.4), 2-DG (m/z = 403.3 > 311.1), 2-PG (m/z = 331.3 > 239.3), 2-OG (m/z = 357.4 > 265.2), and 2-LG (m/z = 355.3 > 263.3). Quantitation occurred using a stable isotope dilution method to detect protonated adducts of the ions [M + H] + in MRM mode. Acyl migration is known to occur in many MAG species following silica-gel purification, therefore the sum of 1-AG and 2-AG, 1-PG and 2-PG, 1-OG and 2-OG, and 1-DG and 2-DG are reported ([Stella et al., 1997]). The established lower limit of quantitation (LLOQ: signal to noise ratio >10) for 2-AG, 2-DG, 2-PG, 2-OG, and 2-LG was 0.5 pmol. The LLOQ for AEA, OEA, and DHEA was 0.008 pmol.

[1] = THL 1 mg oral, 1 h prior to tissue harvest

CCCCCCCCCCC[C@@H](C[C@@H]1OC(=O)[C@H]1CCCCCC)OC(=O)[C@H](CC(C)C)NC=O [THL, tetrahydrolipstatin]
2-LG level in lung (THL 1 mg oral gavage 1 h prior to harvest, vehicle 0.51 ± 0.10): 1.13 ± 0.35 nmol/g
2-DG level in lung (THL 1 mg oral gavage 1 h prior to harvest, vehicle 1.17 ± 0.07): 1.02 ± 0.07 nmol/g
2-OG level in lung (THL 1 mg oral gavage 1 h prior to harvest, vehicle 1.81 ± 0.13): 2.25 ± 0.37 nmol/g
2-OG level in plasma (THL 1 mg oral gavage 1 h prior to harvest, vehicle 2.71 ± 0.68): 1.53 ± 0.22 pmol/mL
2-PG level in lung (THL 1 mg oral gavage 1 h prior to harvest, vehicle 3.15 ± 0.26): 2.51 ± 0.15 nmol/g
2-AG level in lung (THL 1 mg oral gavage 1 h prior to harvest, vehicle 4.47 ± 0.44): 3.73 ± 0.37 nmol/g
2-AG level in plasma (THL 1 mg oral gavage 1 h prior to harvest, vehicle 31.59 ± 3.93): 29.34 ± 2.18 pmol/mL
2-DG level in plasma (THL 1 mg oral gavage 1 h prior to harvest, vehicle 44.25 ± 11.63): 32.82 ± 1.67 pmol/mL
2-PG level in plasma (THL 1 mg oral gavage 1 h prior to harvest, vehicle 46.63 ± 4.97): 51.99 ± 9.87 pmol/mL
2-LG level in plasma (THL 1 mg oral gavage 1 h prior to harvest, vehicle 156.32 ± 27.64): 105.12 ± 11.41 pmol/mL
effect on levels of MAGs in lung vs vehicle [1]: no significant changes
effect on plasma MAGs vs vehicle [1]: No significant changes
effect on levels of all MAGs in jejunum mucosa vs vehicle (THL 1 mg oral, 1 h prior to tissue harvest, 24 h food deprived mice): reduced
2-DG level in jejunum mucosa (mice food deprived 24 h, THL 1 mg oral gavage 1 h prior to harvest, vehicle 7.53 ± 1.40): 0.85 ± 0.13 nmol/g
2-PG level in jejunum mucosa (mice food deprived 24 h, THL 1 mg oral gavage 1 h prior to harvest, vehicle 13.52 ± 2.60): 4.91 ± 0.51 nmol/g
2-AG level in jejunum mucosa (mice food deprived 24 h, THL 1 mg oral gavage 1 h prior to harvest, vehicle 45.81 ± 7.02): 8.04 ± 1.52 nmol/g
2-OG level in jejunum mucosa (mice food deprived 24 h, THL 1 mg oral gavage 1 h prior to harvest, vehicle 100.71 ± 28.93): 5.56 ± 1.10 nmol/g
2-LG level in jejunum mucosa (mice food deprived 24 h, THL 1 mg oral gavage 1 h prior to harvest, vehicle 194.08 ± 40.11): 24.61 ± 7.48 nmol/g
